In patent US9670197B2, “Small molecule modifiers of the Hec1-Nek2 interaction in G2/M” (The Regents of the University of California, priority 2013, dated 2017):
Where a SMILES comes first, the peptide text is derived from it. The star is where a group is joined. Cbz = O=C(OCc1ccccc1)*

Key:
[1] = test system: HeLa; assay: Cancer cell growth inhibition, HeLa; type: cell-based; conditions: Homo sapiens; Table 1, HeLa; read-out: HeLa IC50
Procedure: Cell lines and establishment of stable cell lines. Human breast cancer cell lines MDA-MB-231 and MDA-MB-468, osteosarcoma line U20S, cervical adenocarcinoma line HeLa, and normal skin fibroblast Hs27 were maintained in DMEM medium (Invitrogen, Grand Island, N.Y.) supplemented 10% fetal bovine serum (FBS) and 1% penicillin-streptomycin. The leukemia cell line K562 and glioblastoma cell line T98G were grown in RPMI 1640 supplemented 10% FBS and 1% penicillin-streptomycin. Normal mammary gland epithelial cell line MCF10A was cultured in DMEM/F12 (50:50) plus 5% horse serum, 0.1 μg/mL cholera toxin, 10 μg/mL insulin, 0.5 μg/mL hydrocortisone, and 20 ng/mL epidermal growth factor. To establish MDA-MB-468 cells that stably expressed each individual GFP-Hec1 deletion construct described above, cells were infected with retrovirus expressing GFP-Hec1 WT, GFP-Hec1 W395A and GFP-Hec1 WLK/AAA, and were selected with 2 μg/ml puromycin.

[2] = test system: MB468; assay: Cancer cell growth inhibition, MB468 (MDA-MB-468); type: cell-based; conditions: Homo sapiens, Table 1, MB468, read-out: MB468 IC50
[3] = test system: Nek2; assay: Nek2 protein level in treated HeLa cells, western blot; type: cell-based; conditions: co-treatment with INH41 or INH154
Procedure: INH-induced Nek2 degradation; INH-inhibition of Hec1 phosphorylation by Nek2. […] To evaluate whether INH treatment affected cell cycle profile or Nek2 mRNA level, we performed FACS and real-time PCR analysis.
Protein extraction and western blot analysis. The protein extractions and western blot analyses of Examples 4-6 were conducted as follows. Cell extracts were prepared and equal amounts of protein were separated by SDS-PAGE (10% w/v gel) followed by electrophoretic transfer to PVDF membranes (Millipore, Billerica, Mass.). After blocking with 5% w/v powdered non-fat milk, the membrane was incubated with different antibodies for overnight at 4° C. and treated for 1 hr with horseradish peroxidase-conjugated goat anti-mouse IgG and goat anti-rabbit IgG antibodies (GeneTex, Irvine, Calif.). ECL detection of the horseradish peroxidase reaction was performed according to the manufacturer's instructions (Millipore, Billerica, Mass.). Protein signal was measured on a LAS 4000 mini Imaging System (Fujifilm, Valhalla, N.Y.).

[4] = test system: cancer cell lines; assay: Cancer cell growth inhibition; type: cell-based
[5] = test system: Hec1; assay: Biotin-conjugated INH pull-down of Hec1 and Hec1 mutants; type: binding

Row | SMILES | IC50 [1] [nM] | IC50 [2] [nM] | effect on INH-induced degradation of Nek2 [3] | inhibition of cancer cell growth, IC50 (in words) [4] | binding of Hec1 W395A and W395A/L399A/K400A mutants [5]
1 | Cc1cc(NC(=O)CCC(=O)O)cc(C)c1-c1csc(NC(=O)c2ccncc2)n1 [INH146, 4-(4-(2-(isonicotinamido)thiazol-4-yl)-3,5-dimethylphenylamino)-4-oxobutanoic acid] | > 5000 | > 10000 |  |  | 
2 | Cc1cc(N2C(=O)CCC2=O)cc(C)c1-c1csc(NC(=O)c2ccncc2)n1 [INH160, N-(4-(4-(2,5-dioxopyrrolidin-1-yl)-2,6-dimethylphenyl)thiazol-2-yl)isonicotinamide] | 5000 | 3300 |  |  | 
3 | CC(C)C[C@@H](C=O)NC(=O)[C@H](CC(C)C)NC(=O)[C@H](CC(C)C)NC(=O)OCc1ccccc1 [MG132, reference compound] (Cbz-Leu-Leu-Leu-aldehyde) |  |  | prevented INH-induced degradation of Nek2 |  | 
4 | Cc1cc(N)cc(C)c1-c1csc(NC(=O)c2ccncc2)n1 [INH79, N-(4-(4-amino-2,6-dimethylphenyl)thiazol-2-yl)isonicotinamide] | 2300 | 3200 |  |  | 
5 | COc1cncc(Oc2cc(C)c(-c3csc(NC(=O)c4ccncc4)n3)c(C)c2)n1 [INH81, N-(4-(4-((6-methoxypyrazin-2-yl)oxy)-2,6-dimethylphenyl)thiazol-2-yl)isonicotinamide] | 1400 | 400 |  | sub-micromolar IC50 | 
6 | Cc1cc(NC(=O)C2CC2)cc(C)c1-c1csc(NC(=O)c2ccncc2)n1 [INH136, N-(4-(4-((cyclopropylcarbonyl)amino)-2,6-dimethylphenyl)thiazol-2-yl)isonicotinamide] | 1500 | 3400 |  |  | 
7 | Cc1cc(O)cc(C)c1-c1csc(NC(=O)c2ccncc2)n1 [INH182, N-(4-(4-hydroxy-2,6-dimethylphenyl)thiazol-2-yl)isonicotinamide] | 3500 | 2000 |  |  | 
8 | Cc1cc(N2CCN(C)CC2)cc(C)c1-c1csc(NC(=O)c2ccncc2)n1 [INH212, N-(4-(2,6-dimethyl-4-(4-methylpiperazin-1-yl)phenyl)thiazol-2-yl)isonicotinamide] | 2500 | 2400 |  |  | 
9 | Cc1cc(C#N)cc(C)c1-c1csc(NC(=O)c2ccncc2)n1 [INH174, N-(4-(4-Cyano-2,6-dimethylphenyl)thiazol-2-yl)isonicotinamide] | 600 | 500 |  | sub-micromolar IC50 | 
10 | Cc1cc(N2CCC(OCCOCCOCCOCCNC(=O)CCCC[C@@H]3SC[C@@H]4NC(=O)N[C@@H]43)CC2)cc(C)c1-c1csc(NC(=O)c2ccncc2)n1 [biotin-INH154, N-(4-(2,6-dimethyl-4-(4-((13-oxo-17-((3aS,4S,6aR)-2-oxohexahydro-1H-thieno [3,4-d]imidazol-4-yl)-3,6,9-trioxa-12-azaheptadecyl)oxy)piperidin-1-yl)phenyl)thiazol-2-yl)isonicotinamide] |  |  |  |  | neither mutant was able to bind
11 | Cc1cc(F)cc(C)c1-c1csc(NC(=O)c2ccncc2)n1 [INH80, N-(4-(4-fluoro-2,6-dimethylphenyl)thiazol-2-yl)isonicotinamide] | 2000 | 4400 |  |  | 
12 | Cc1cc(NCC(=O)O)cc(C)c1-c1csc(NC(=O)c2ccncc2)n1 [INH156, N-(4-(2-(Isonicotinamido)thiazol-4-yl)-3,5-dimethylphenyl)-glycine] | 2400 | 9400 |  |  | 
13 | Cc1cc([N+](=O)[O-])cc(C)c1-c1csc(NC(=O)c2ccncc2)n1 [INH78, N-(4-(2,6-Dimethyl-4-nitrophenyl)thiazol-2-yl)isonicotinamide] | 630 | 1400 |  | sub-micromolar IC50 | 
14 | COc1cc(C)cc(C)c1-c1csc(NC(=O)c2ccncc2)n1 [INH56] | 1800 | 4500 |  |  | 
15 | Cc1cc(N2CCOCC2)cc(C)c1-c1csc(NC(=O)c2ccncc2)n1 [INH168] | 200 | 120 |  | sub-micromolar IC50 | 
